Experimental data published in patent US6737383B1, “Herbicidal oxadiazolidines” (priority 1999, dated 2004).

Columns and labels:
bedstraw = test: Test B pre/postemergence bedstraw; type: in vivo, Galium aparine
Outline: (§1)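 Herbicidal effect was estimated by eye on a ten-point control scale after plants spent twelve to sixteen days in a greenhouse following soil or foliar treatment. Foliar sprays targeted plants at one to four leaves; all doses were formulated in a non-phytotoxic solvent with surfactant.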

wild oat = test: Test B pre/postemergence wild oat; type: in vivo, Avena fatua
Outline: as §1

morningglory = test: Test B pre/postemergence morningglory; type: in vivo, Ipomoea hederacea
Outline: as §1

purple nutsedge = test: Test B pre/postemergence purple nutsedge; type: in vivo, Cyperus rotundus
Outline: as §1

blackgrass = test: Test B pre/postemergence blackgrass; type: in vivo, Alopecurus myosuroides
Outline: as §1

surinam grass = test: Test B pre/postemergence surinam grass; type: in vivo, Brachiaria decumbens
Outline: as §1

rape = test: Test B pre/postemergence rape; type: in vivo, Brassica napus
Outline: as §1

corn = test: Test B pre/postemergence corn; type: in vivo, Zea mays
Outline: as §1

wheat = test: Test B pre/postemergence wheat; type: in vivo, Triticum aestivum
Outline: as §1

giant foxtail = test: Test B pre/postemergence giant foxtail; type: in vivo, Setaria faberii
Outline: as §1

sugar beet = test: Test B pre/postemergence sugar beet; type: in vivo, Beta vulgaris
Outline: as §1

crabgrass = test: Test B pre/postemergence crabgrass; type: in vivo, Digitaria sanguinalis
Outline: as §1

pigweed = test: Test B pre/postemergence pigweed; type: in vivo, Amaranthus retroflexus
Outline: as §1

velvetleaf = test: Test B pre/postemergence velvetleaf; type: in vivo, Abutilon theophrasti
Outline: as §1

cocklebur = test: Test B pre/postemergence cocklebur; type: in vivo, Xanthium strumarium
Outline: as §1

soybean = test: Test B pre/postemergence soybean; type: in vivo, Glycine max
Outline: as §1

[1] = Postemergence, Rate 250 g/ha, scale of 0 to 10, 0 is no effect, 10 is complete control
[2] = Preemergence, Rate 62 g/ha, scale of 0 to 10 where 0 is no effect and 10 is complete control
[3] = Preemergence, Rate 125 g/ha, scale of 0 to 10 where 0 is no effect and 10 is complete control
[4] = Preemergence, Rate 250 g/ha, scale 0 to 10 (0 no effect, 10 complete control)
[5] = Preemergence, Rate 500 g/ha, scale of 0 to 10 where 0 is no effect and 10 is complete control
[6] = Rate 500 g/ha, Postemergence, scale 0 to 10, 0 is no effect, 10 is complete control
[7] = Postemergence, Rate 62 g/ha, scale 0 to 10, 0 is no effect, 10 is complete control
[8] = Postemergence, Rate 125 g/ha, scale of 0 to 10 where 0 is no effect and 10 is complete control

SMILES: CC(C)N(C(=O)n1oc(=O)n(Cc2nnc(Cl)s2)c1=O)c1ccccc1 [Compound 654]
- Bedstraw plant response rating (bedstraw; [1]): 0
- Bedstraw plant response rating (bedstraw; [2]): 0
- Bedstraw plant response rating (bedstraw; [3]): 0
- Plant response rating, Bedstraw (bedstraw; [4]): 0
- Plant response rating, Bedstraw (bedstraw; [5]): 0
- Bedstraw plant response rating (bedstraw; [6]): 0
- Plant response rating, Wild oats (wild oat; [7]): 0
- Wild oats plant response rating (wild oat; [8]): 0
- Wild oats plant response rating (wild oat; [2]): 0
- Wild oats plant response rating (wild oat; [3]): 0
- Plant response rating, Wild oats (wild oat; [4]): 0
- Plant response rating, Wild oats (wild oat; [5]): 2
- Wild oats plant response rating (wild oat; [6]): 0
- Plant response rating, Morningglory (morningglory; [7]): 3
- Morningglory plant response rating (morningglory; [8]): 4
- Morningglory plant response rating (morningglory; [1]): 10
- Morningglory plant response rating (morningglory; [2]): 0
- Morningglory plant response rating (morningglory; [3]): 0
- Plant response rating, Morningglory (morningglory; [4]): 0
- Plant response rating, Morningglory (morningglory; [5]): 0
- Morningglory plant response rating (morningglory; [6]): 10
- Plant response rating, Nutsedge (purple nutsedge; [7]): 0
- Nutsedge plant response rating (purple nutsedge; [8]): 0
- Nutsedge plant response rating (purple nutsedge; [2]): 0
- Plant response rating, Nutsedge (purple nutsedge; [4]): 0
- Plant response rating, Nutsedge (purple nutsedge; [5]): 0
- Plant response rating, Blackgrass (blackgrass; [7]): 0
- Blackgrass plant response rating (blackgrass; [8]): 0
- Blackgrass plant response rating (blackgrass; [1]): 0
- Blackgrass plant response rating (blackgrass; [2]): 0
- Blackgrass plant response rating (blackgrass; [3]): 0
- Plant response rating, Blackgrass (blackgrass; [4]): 2
- Plant response rating, Blackgrass (blackgrass; [5]): 7
- Blackgrass plant response rating (blackgrass; [6]): 0
- Plant response rating, B. signalgrass (surinam grass; [7]): 0
- Plant response rating, B. signalgrass (surinam grass; [8]): 0
- B. signalgrass plant response rating (surinam grass; [1]): 0
- B. signalgrass plant response rating (surinam grass; [2]): 0
- B. signalgrass plant response rating (surinam grass; [3]): 0
- Plant response rating, B. signalgrass (surinam grass; [4]): 0
- Plant response rating, B. signalgrass (surinam grass; [5]): 7
- B. signalgrass plant response rating (surinam grass; [6]): 0
- Plant response rating, Rape (rape; [7]): 0
- Rape plant response rating (rape; [8]): 0
- Rape plant response rating (rape; [2]): 0
- Rape plant response rating (rape; [3]): 0
- Plant response rating, Rape (rape; [4]): 0
- Plant response rating, Rape (rape; [5]): 0
- Rape plant response rating (rape; [6]): 0
- Plant response rating, Corn (corn; [7]): 0
- Corn plant response rating (corn; [8]): 0
- Corn plant response rating (corn; [1]): 0
- Corn plant response rating (corn; [2]): 0
- Corn plant response rating (corn; [3]): 0
- Plant response rating, Corn (corn; [4]): 0
- Plant response rating, Corn (corn; [5]): 0
- Corn plant response rating (corn; [6]): 0
- Plant response rating, Wheat (wheat; [7]): 0
- Wheat plant response rating (wheat; [8]): 0
- Wheat plant response rating (wheat; [2]): 0
- Wheat plant response rating (wheat; [3]): 0
- Plant response rating, Wheat (wheat; [4]): 0
- Plant response rating, Wheat (wheat; [5]): 0
- Wheat plant response rating (wheat; [6]): 0
- Plant response rating, Giant foxtail (giant foxtail; [7]): 0
- Giant foxtail plant response rating (giant foxtail; [8]): 2
- Giant foxtail plant response rating (giant foxtail; [1]): 5
- Giant foxtail plant response rating (giant foxtail; [2]): 0
- Giant foxtail plant response rating (giant foxtail; [3]): 6
- Plant response rating, Giant foxtail (giant foxtail; [4]): 9
- Plant response rating, Giant foxtail (giant foxtail; [5]): 9
- Giant foxtail plant response rating (giant foxtail; [6]): 7
- Plant response rating, Sugarbeets (sugar beet; [7]): 0
- Sugarbeets plant response rating (sugar beet; [8]): 0
- Sugarbeets plant response rating (sugar beet; [2]): 0
- Sugarbeets plant response rating (sugar beet; [3]): 0
- Plant response rating, Sugarbeets (sugar beet; [4]): 0
- Plant response rating, Sugarbeets (sugar beet; [5]): 0
- Sugarbeets plant response rating (sugar beet; [6]): 0
- Plant response rating, Crabgrass (crabgrass; [7]): 0
- Crabgrass plant response rating (crabgrass; [8]): 0
- Crabgrass plant response rating (crabgrass; [1]): 2
- Crabgrass plant response rating (crabgrass; [2]): 0
- Crabgrass plant response rating (crabgrass; [3]): 3
- Plant response rating, Crabgrass (crabgrass; [4]): 7
- Plant response rating, Crabgrass (crabgrass; [5]): 9
- Crabgrass plant response rating (crabgrass; [6]): 7
- Plant response rating, Redroot pigweed (pigweed; [7]): 0
- Redroot pigweed plant response rating (pigweed; [8]): 0
- Redroot pigweed plant response rating (pigweed; [2]): 0
- Redroot pigweed plant response rating (pigweed; [3]): 0
- Plant response rating, Redroot pigweed (pigweed; [4]): 3
- Plant response rating, Redroot pigweed (pigweed; [5]): 5
- Redroot pigweed plant response rating (pigweed; [6]): 0
- Plant response rating, Velvetleaf (velvetleaf; [7]): 0
- Velvetleaf plant response rating (velvetleaf; [8]): 0
- Velvetleaf plant response rating (velvetleaf; [2]): 0
- Velvetleaf plant response rating (velvetleaf; [3]): 0
- Plant response rating, Velvetleaf (velvetleaf; [4]): 0
- Plant response rating, Velvetleaf (velvetleaf; [5]): 0
- Velvetleaf plant response rating (velvetleaf; [6]): 0
- Plant response rating, Cocklebur (cocklebur; [7]): 0
- Cocklebur plant response rating (cocklebur; [8]): 0
- Cocklebur plant response rating (cocklebur; [1]): 0
- Cocklebur plant response rating (cocklebur; [2]): 0
- Cocklebur plant response rating (cocklebur; [3]): 0
- Plant response rating, Cocklebur (cocklebur; [4]): 0
- Plant response rating, Cocklebur (cocklebur; [5]): 0
- Cocklebur plant response rating (cocklebur; [6]): 0
- Plant response rating, Soybean (soybean; [7]): 0
- Soybean plant response rating (soybean; [8]): 0
- Soybean plant response rating (soybean; [2]): 0
- Soybean plant response rating (soybean; [3]): 0
- Plant response rating, Soybean (soybean; [4]): 0
- Plant response rating, Soybean (soybean; [5]): 0
- Soybean plant response rating (soybean; [6]): 0
